Here are results for one compound from patent US8449788B2, “Leather finishing compositions comprising dioxolane derivatives” (Rhodia Poliamida e Especialidades Ltda, priority 2009, dated 2013).

The conditions of data set [1]: cited from earlier work.
Data set [2] in a line: Solubilization of a dye-metal complex. The data set is classed as physicochemical. On the procedure:
Solketal was tested to solubilize a dye-metal complex.

For another data set, the system named is mouse. As to conditions: cited from earlier work.
For data set [3] the following is noted: cited from earlier work. This is another data set of the same source.
The conditions of data set [4]: cited from earlier work. This is another data set of the same source.

Read-outs that look alike come from different tables or passages of the source.

With `CC1(C)OCC(CO)O1` (stereo not drawn) [Solketal, 2,2-dimethyl-1,3-dioxolane-4-methanol], in data set [1], the “Solubility in water at 20° C.” value is “miscible”. The “Performance as solvent for dye-metal complex” value in data set [2] is “good compared to diacetone alcohol and methoxy propanol, and less effective compared to ethyldiglycol, ethylglycol, butyldiglycol and butylglycol”; in data set [2] (listed as solketal), “average”. Further, the “LD50 (oral/mouse mg/kg)” value in the data set with mouse is 7000 mg/kg. Besides, the “Reversion in slightly acid pH (biodegradability)” value in data set [3] is “may revert into acetone and glycerin”. For the same compound, the Acute oral toxicity in data set [4] is 7.00.
